# Key:
# [1] = tested on: complement serum (guinea pig complement); assay: Anticomplementary activity (inhibition of hemolysis of sensitized erythrocytes); type: biochemical; settings: 50% hemolysis inhibition, 37° C.
# Experimental: The anticomplementary activity of the test compound was measured according to the test method as described in Experimental Immunochemistry, edited by E. A. Kabat and M. M. Mayer, 2nd ed., Springfield, III: C. C. Thomas (1961) pages 133-240.
# A mixture of 1 ml of a 5-fold diluted solution of a Veronal buffer solution containing 1.5×10^-4 M Ca^2+ and 5×10^-4 M Mg^2+ and isotonic gelatin, 1.5 ml of complement serum (guinea pig complement) diluted 400 times with a physiological saline solution and 0.05 ml of a solution of a test compound (in this case, a test compound was dissolved in a physiological saline solution) was incubated at 37° C. for 30 minutes. To the said mixture there was added 0.4 ml of sensitized erythrocytes suspension containing 5×10^8 cells/ml and said mixture was incubated at 37° C. further for 60 minutes. After the incubation, the mixture was centrifuged in 3,000 rpm at 4° C. for 10 minutes.
# The results are expressed in Table 1 as the concentration of each drugs inhibiting the hemolysis activity by 50% (IC50).
# [2] = tested on: blood clot (fresh rabbit blood, urokinase, bovine thrombin); assay: Fibrinolytic activity (modified diluted whole blood clot lysis time method); type: biochemical; settings: 50 μl of test compound (300 μg/ml), 37° C.
# Experimental: The enhancement of the fibrinolytic activity of the test compounds was measured according to the modified diluted whole blood clot lysis time method described in
# G. R. Fearnley, G. V. Balmforth, E. Fearnley: Clin. Sci. 16, 645-650 (1957)
# I. S. Chohan et al: Thrombos. Diathes. Haemorrh. 33, 226 (1975) and
# I. M. Nilsson et al: Handbook of Experimental Pharmacology 46, 110
# Fresh rabbit blood was diluted 20 times with 1/15 M phosphate buffer (pH 7.4). A mixture of 400 μl of the diluted blood solution and 50 μl of a test compound (300 μg/ml) was incubated at 37° C. for 30 minutes. To the mixture were added 50 μl of urokinase solution (100 IU/ml) and 50 μl of bovine thrombin (100 N.I.H. u/ml). The clot produced in tubes was incubated at 37° C. for various periods of time. At the end of each incubation interval (15 minutes interval), 2.5 ml of distilled water was added to lyse erythrocytes released from clotted blood and absorbance (OD541) of the supernatant separated by centrifugation (3,000 rpm for 10 minutes) from the reaction mixture was measured. The fibrinolytic activity of the test compound was determined by the time in minutes needed for the complete lysis of the blood clot.
# In the absence of a test compound, it took more than 2 hours to lyse blood clot in the above condition. However, blood clot was lysed in the presence of test compounds after 15 minutes (symbol: ++) and 45 minutes (symbol: +) incubation, respectively. Samples which were incapable of lysing blood clot within 1 hour incubation were expressed as symbol (-).
Structure (SMILES),Anticomplementary Activity (IC50) [1] [mg/L],Fibrinolytic Activity (time needed for complete lysis of the blood clot) [2]
"CCCCCCCCCCCC(=O)OC(CCCCCCCCCCC)CC(=O)NCC(=O)N[C@@H](CO)C(=O)O (stereo partly drawn) [Example 3, N-[N-(3-dodecanoyloxytetradecanoyl)glycyl]-L-serine]",0.12,
"CC(C)CCCCCCCCCCCC(=O)OC(CCCCCCCCCCCC(C)C)CC(=O)N[C@@H](CO)C(=O)O (stereo partly drawn) [Example 20, N-[15-methyl-3-(13-methyltetradecanoyloxy)hexadecanoyl]-L-serine]",2.8,+ (45 minutes (symbol: +) incubation)
"CCCCCCCCCCCCCCCC(=O)OC(CCCCCCCCCCCCCCC)CC(=O)N[C@@H](C)C(=O)N[C@H](C(=O)O)[C@@H](C)O (stereo partly drawn) [Example 14, N-[N-(3-hexadecanoyloxyoctadecanoyl)-L-alanyl]-L-threonine]",0.23,
"CCCCCCCCCCCCCCCC(=O)OC(CCCCCCCCCCCCCCC)CC(=O)NCC(=O)N[C@@H](Cc1c[nH]c2ccccc12)C(=O)O (stereo partly drawn) [Example 43, N-[N-(3-hexadecanoyloxyoctadecanoyl)glycyl]-L-tryptophan]",5.11,+ (45 minutes (symbol: +) incubation)
"CC(C)CCCCCCCCCCCC(=O)OC(CCCCCCCCCCCC(C)C)CC(=O)NCC(=O)N[C@@H](Cc1ccccc1)C(=O)O (stereo partly drawn) [Example 15, N-[N-[15-methyl-3-(13-methyltetradecanoyloxy)hexadecanoyl]glycyl]-L-phenyl alanine]",2.8,++ (blood clot was lysed in the presence of test compounds after 15 minutes (symbol: ++))
"CCCCCCCCCCCCCCCC(=O)OC(CCCCCCCCCCCCCCC)CC(=O)NCCC(=O)N[C@H](C(=O)O)[C@@H](C)O (stereo partly drawn) [Example 7, N-[N-(3-hexadecanoyloxyoctadecanoyl)-β-alanyl]-L-threonine]",0.02 to 0.03,
"CCCCCCCCCCCCCCCC(=O)OC(CCCCCCCCCCCCCCC)CC(=O)N[C@@H](Cc1ccccc1)C(=O)O (stereo partly drawn) [Example 26, N-(3-hexadecanoyloxyoctadecanoyl)-L-phenylalanine]",3.5,+ (45 minutes (symbol: +) incubation)
"CCCCCCCCCCCCCCCC(=O)OC(CCCCCCCCCCCCCC)C(=O)NCC(=O)N[C@@H](CO)C(=O)O (stereo partly drawn) [Example 35, N-[N-(2-hexadecanoyloxyhexadecanoyl)glycyl]-L-serine]",0.03,+ (45 minutes (symbol: +) incubation)
"CC(C)CCCCCCCCCCCC(=O)OC(CCCCCCCCCCCC(C)C)CC(=O)NCCC(=O)N[C@@H](CO)C(=O)O (stereo partly drawn) [Example 9, N-[N-[15-methyl-3-(13-methyltetradecanoyloxy)hexadecanoyl]-β-alanyl]-L-serine]",0.1,+ (45 minutes (symbol: +) incubation)
"CCCCCCCCCCCCCCCC(=O)OC(CCCCC)CC(=O)NCC(=O)N[C@@H](CO)C(=O)O (stereo partly drawn) [Example 4, N-[N-(3-hexadecanoyloxyoctanoyl)glycyl]-L-serine]",1.1,
"CC(C)CCCCCCCCCCCC(=O)OC(CCCCCCCCCCCC(C)C)CC(=O)NCC(=O)N[C@H](C(=O)O)[C@@H](C)O (stereo partly drawn) [Example 11, N-[N-[15-methyl-3-(13-methyltetradecanoyloxy)hexadecanoyl]glycyl]-L-threonine]",0.36,+ (45 minutes (symbol: +) incubation)
"CC(C)CCCCCCCCCCCC(=O)OC(CCCCCCCCCCCC(C)C)CC(=O)NCCC(=O)N[C@@H](Cc1c[nH]cn1)C(=O)O (stereo partly drawn) [Example 16, N-[N-[15-methyl-3-(13-methyltetradecanoyloxy)hexadecanoyl]-β-alanyl]-L-histidine]",4.2,
"CCCCCCCCCCCCCCCC(=O)OC(CCCCCCCCCCCCCCC)CC(=O)NCCC(=O)N[C@@H](Cc1ccccc1)C(=O)O (stereo partly drawn) [Example 32, N-[N-(3-hexadecanoyloxyoctadecanoyl)-β-alanyl]-L-phenylalanine]",1.32,++ (blood clot was lysed in the presence of test compounds after 15 minutes (symbol: ++))
"CCCCCCCCCCCCCCCC(=O)OC(CCCCCCCCCCCCCCC)CC(=O)NCCCCC(=O)N[C@H](C(=O)O)[C@@H](C)O (stereo partly drawn) [Example 34, N-[5-(3-hexadecanoyloxyoctadecanoyl)aminovaleryl]-L-threonine]",0.02,+ (45 minutes (symbol: +) incubation)
"CC(C)CCCCCCCCCCCC(=O)OC(CCCCCCCCCCCC(C)C)CC(=O)NCC(=O)N[C@@H](CO)C(=O)O (stereo partly drawn) [Example 1, N-[N-[15-methyl-3-(13-methyltetradecanoyloxy)hexadecanoyl]glycyl]-L-serine]",1.0,
"CC(C)CCCCCCCCCCCC(=O)OC(CCCCCCCCCCCC(C)C)CC(=O)NCC(=O)N[C@@H](Cc1ccc(O)cc1)C(=O)O (stereo partly drawn) [Example 18, N-[N-[15-methyl-3-(13-methyltetradecanoyloxy)hexadecanoyl]glycyl]-L-tyrosine]",3.2,+ (45 minutes (symbol: +) incubation)
"CCCCCCCCCCCCCCCC(=O)OC(CCCCCCCCCCCCCC)C(=O)NCCC(=O)N[C@H](C(=O)O)[C@@H](C)O (stereo partly drawn) [Example 36, N-[N-(2-hexadecanoyloxyhexadecanoyl)-β-alanyl]-L-threonine]",0.08,+ (45 minutes (symbol: +) incubation)
"CCCCCCCCCCCCCCCC(=O)OC(CCCCCCCCCCCCCCC)CC(=O)N[C@H](C(=O)N[C@H](C(=O)O)[C@@H](C)O)C(C)C (stereo partly drawn) [Example 29, N-[N-(3-hexadecanoyloxyoctadecanoyl)-L-valyl]-L-threonine]",0.59,
"CC(C)CCCCCCCCCCCC(=O)OC(CCCCCCCCCCCC(C)C)CC(=O)NCCC(=O)N[C@H](C(=O)O)[C@@H](C)O (stereo partly drawn) [Example 8, N-[N-[15-methyl-3-(13-methyltetradecanoyloxy)hexadecanoyl]-β-alanyl]-L-threonine]",0.04 to 0.06,
"CCCCCCCCCCCCCCCC(=O)OC(CCCCCCCCCCCCCCC)CC(=O)NCC(=O)O (stereo not drawn) [Example 27, N-(3-hexadecanoyloxyoctadecanoyl)glycine]",0.44,+ (45 minutes (symbol: +) incubation)
"CC(C)CCCCCCCCCCCC(=O)OC(CCCCCCCCCCCC(C)C)CC(=O)NCC(=O)O (stereo not drawn) [Example 19, N-[15-methyl-3-(13-methyltetradecanoyloxy)hexadecanoyl]glycine]",4.0,+ (45 minutes (symbol: +) incubation)
"CCCCCCCCCCCCCCCC(=O)OC(CCCCCCCCCCCCCCC)CC(=O)NCCC(=O)N[C@@H](CO)C(=O)O (stereo partly drawn) [Example 10, N-[N-(3-hexadecanoyloxyoctadecanoyl)-β-alanyl]-L-serine]",0.03 to 0.04,
"CCCCCCCCCCCCCCCC(=O)OC(CCCCCCCCCCCCCCC)CC(=O)NCC(=O)N[C@@H](Cc1ccccc1)C(=O)O (stereo partly drawn) [Example 38, N-[N-(3-hexadecanoyloxyoctadecanoyl)glycyl]-L-phenylalanine]",3.4,+ (45 minutes (symbol: +) incubation)
"CC(C)CCCCCCCCCCCC(=O)OC(CCCCCCCCCCCC(C)C)CC(=O)N[C@@H](C)C(=O)N[C@H](C(=O)O)[C@@H](C)O (stereo partly drawn) [Example 13, N-[N-[15-methyl-3-(13-methyltetradecanoyloxy)hexadecanoyl]-L-alanyl]-L-thr eonine]",0.72,
"CC(C)CCCCCCCCCCCC(=O)OC(CCCCCCCCCCCC(C)C)CC(=O)N[C@@H](C)C(=O)N[C@@H](CO)C(=O)O (stereo partly drawn) [Example 12, N-[N-[15-methyl-3-(13-methyltetradecanoyloxy)hexadecanoyl]L-alanyl]-L-serine]",0.59,
